Consider 1 compound from patent US20250204520A1, “USE OF SODIUM SELENITE IN PREVENTION AND/OR A[…] TEA TREE SUNBURN” (ANHUI AGRICULTURAL UNIVERSITY, priority 2023, published 2025).

Holding throughout (format): in vivo, 'Huangjinye' tea tree variety
For assay [1], the system named is tea tree sunburn. The experiment in a line: Anti-sunburn test of different concentrations of selenium: disease index, incidence and control effect after simulated sunburn. Particulars: for Incidence: foliar spray 4 days, simulated sunburn 4 h; for Disease index: foliar spray once a day for 4 days, simulated sunburn 34° C., 1600 μmol·m^−2·s^−1, 4 h; for Efficacy (control effect): calculated from disease index vs control group. As to the method: A method for preventing and/or alleviating tea tree sunburn included: • Experimental base: artificial climate chamber of Anhui Agricultural University; • Experimental subjects: ‘Huangjinye’ tea tree variety; • Experimental procedure:
2. Preparation of Na2SeO3 treatment solutions with different concentrations: 1.0, 2.0, 3.0, and 4.0 mg sodium selenite crystal powders were dissolved in 1 L of pure water (with final concentrations of 1.0, 2.0, 3.0, and 4.0 mg/L, respectively).
3. Seedling cultivation: the purchased tea seedlings were planted in a flower pot with a diameter of 20 cm, where nutrient soil, vermiculite, and perlite were at a volume ratio of 2:1:1; growth environment: temperature 28° C., humidity 80%, and light intensity 500 μmol·m^−2·s^−1.
(§1) 4. Anti-sunburn test of different concentrations of selenium: tea seedlings with roughly the same growth rate were sprayed with 0, 1.0, 2.0, 3.0, and 4.0 mg/L sodium selenite solution on the surface of their leaves at a distance of 3 cm to 5 cm from the leaves until liquid droplets were falling from the leaves, spray once a day for continuous 4 days; while a control group was sprayed with the same amount of water.
(§2) After an interval of 2 d after the end of the external treatment, the tea seedlings were placed in an artificial climate chamber (temperature: 34° C., humidity: 60%, light intensity: 1600 μmol·m^−2·s^−1) to allow simulated sunburn treatment for 4 h, and then observed, photographed, and statistics were made.
The number of leaves at each disease level was counted according to the degree of disease susceptibility, and the average incidence rate and disease index were calculated according to the formula to determine the severity of tea leaf diseases. Incidence rate=number of diseased leaves/total number of investigated leaves×100%, disease index=[Σ(number of leaves at each disease level×representative value of disease level)/(total number of investigated leaves×representative value of highest level)]×100; control effect (%)=[(control group condition index-treatment group condition index)/control group condition index]×100%.

Assay [2] deals with tea tree sunburn. Nature of the assay: Fv/Fm value of tea trees treated with exogenous selenium under sunburn. Particulars: under sunburn conditions (water treatment group: 42.09%). The protocol:
as §1, §2
Influences of different concentrations of selenium on the apparent morphology of tea trees under sunburn: compared with the selenium treatment group, the water treatment group had the largest number of burned leaves and the largest lesion area. […] The decrease in Fv/Fm value of tea trees in the 4 selenium treatment groups was smaller than that in the water treatment group, where the Fv/Fm value of the treatment with a selenium concentration of 3.0 mg/L had the minimum decrease. Moreover, external spraying of sodium selenite could indeed alleviate the tea tree sunburn, and 3.0 mg/L Na2SeO3 solution had the best effect.

For the next assay, the system named is tea tree. The experiment in a line: Malondialdehyde (MDA) content of tea tree leaves after spraying sodium selenite, with and without simulated sunburn. The following applies: 3 mg/L Na2SeO3 sprayed. The protocol: A method for preventing and/or alleviating tea tree sunburn included: • Experimental base: artificial climate chamber of Anhui Agricultural University; • Experimental subjects: ‘Huangjinye’ tea tree variety;
2. Preparation of Na2SeO3 treatment solution: 3.0 mg sodium selenite crystal powder was dissolved in 1 L of pure water (concentration: 3.0 mg/L).
3. Seedling growth environment: the purchased tea seedlings were planted in a flower pot with a diameter of 20 cm (nutrient soil, vermiculite, and perlite) were at a volume ratio of 2:1:1, and then placed in a glass greenhouse.
Normal growth environment: temperature 28° C., humidity 80%, and light intensity500 μmol·m^−2·s^−1.
Sunburn-simulated environment: temperature 34° C., humidity 60%, and light intensity 1,600 μmol·m^−2·s^−1.
4. […]
After sunburn treatment for 4 h, 0.5 g samples of the 3rd and 4th leaves of mature tea tree leaves were added in a mortar separately, added with 5 mL of 5% (v/v) trichloroacetic acid and ground. […] After rapid cooling and centrifugation at 4,000 r/min for 10 min, a supernatant was detected using a UV spectrophotometer at […], 600 nm, and 450 nm separately, and the data were recorded and analyzed. […]

Setting [3] is: selenium concentration 1.0 mg/L.
Where [4] appears, read: selenium concentration 2.0 mg/L.
Where [5] appears, read: selenium concentration 3.0 mg/L.
Where [6] appears, read: selenium concentration 4.0 mg/L.

With `O=[Se]([O-])[O-].[Na+].[Na+]` [selenium, sodium selenite], the “Number of sunburned leaves and area of diseased spots (apparent morphology)” value with tea tree sunburn [1] (concentration of 3.0 mg/L, among the four spraying concentrations, under sunburn) was “least amount and the smallest lesion area”. Besides, the “Reduction of incidence of sunburn compared with the group without selenium treatment” value in the assay with tea tree sunburn [1] (setting [3]) is 33.83%; with tea tree sunburn [1] (setting [4]), 29.62%; in the assay on tea tree sunburn [1] (setting [5]) it was 78.14%; in the assay with tea tree sunburn [1] (setting [6]), 9.84%. Further, the Incidence is given as 12.11 ± 3.38b % in the assay on tea tree sunburn [1] (setting [3]), 12.88 ± 0.66ab % in the assay with tea tree sunburn [1] (setting [4]), 4.00 ± 0.00d % with tea tree sunburn [1] (setting [5]) and 16.50 ± 3.80a % in the assay with tea tree sunburn [1] (setting [6]). Moreover, the Disease index is 1.13 ± 0.26bc in the assay with tea tree sunburn [1] (setting [3]), 1.13 ± 0.35bc in the assay with tea tree sunburn [1] (setting [4]), 0.22 ± 0.08 days with tea tree sunburn [1] (setting [5]) and 1.62 ± 0.23ab with tea tree sunburn [1] (setting [6]). The “Efficacy (control effect)” value was 42.61% with tea tree sunburn [1] (setting [3]), 42.61% in the assay on tea tree sunburn [1] (setting [4]), 89.38% in the assay on tea tree sunburn [1] (setting [5]) and 17.58% with tea tree sunburn [1] (setting [6]). Further, the “Decrease of Fv/Fm value compared with the control CK” value in the assay on tea tree sunburn [2] (setting [3]) turned out to be 30.29%; in the assay on tea tree sunburn [2] (setting [4]), 23.72%; in the assay on tea tree sunburn [2] (setting [5]), 17.86%; with tea tree sunburn [2] (setting [6]), 34.32%. Also, in the assay with tea tree (non-sunburn growth conditions (Se vs CK)), the “Reduction of MDA content compared with the control” value is listed as 22.14%. The “Decrease of MDA content compared with the water treatment group under sunburn” value with tea tree (simulated sunburn 4 h (SeH vs CKH)) is listed as 19.89%.
